pIC50: −log10 of the molar value.

The first test concerns Human Umbilical Vein Endothelial Cells (HUVECs). The test is described as follows: Inhibition against sandwich tube formation by vascular endothelial cells in response to stimulation by VEGF. The conditions noted are these: HUVEC in collagen gel sandwich, stimulation by VEGF (25 ng/ml VEGF and 10 ng/ml EGF), 4th day, total tube length, read-out: IC50 (concentration required for 50% inhibition of tube formation). Type of test: cell-based. The method, boiled down: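 HUVECs were sandwiched between collagen gel layers in serum-free medium with 25 ng/ml VEGF plus 10 ng/ml EGF, with test substance added above the gel at 37 °C. On day 4 tubes were MTT-stained and total tube length measured by image analysis. IC50 is the concentration halving tube length relative to no-compound wells.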
Regarding `COc1ccc(NC(=O)Nc2ccc(Oc3ccnc4cc(OCCCc5ccncc5)c(C#N)cc34)cc2)cc1` [Example 1], the pIC50 is 6.51.

`COCCOc1cc2nccc(Oc3ccc(NC(=O)Nc4ccccc4)cc3)c2cc1C#N` [Example 65, N-(4-(6-cyano-7-(methoxyethoxy)-4-quinolyl)oxyphenyl)-N′-phenylurea]: the pIC50 was 8.23. On the same count and under the same terms, as for `COCCOc1cc2nccc(Oc3ccc(NC(=O)NC4CC4)cc3)c2cc1C(N)=O` [Example 116, 4-(4-((Cyclopropylamino)carbonyl)aminophenoxy)-7-(2-methoxyethoxy)-6-quinolinecarboxamide], the figure is 8.09.

The target of the next test is T1, VEGFR2 (Homo sapiens, UniProt P35968).
T1 construct: coding for the cytoplasmic domain, beginning with lysine 791 and including the termination codon; made in house; host or cells: Sf9 insect cells (baculovirus, pFastBacHis)
T1 sequence (P35968 786-1356 limits assumed): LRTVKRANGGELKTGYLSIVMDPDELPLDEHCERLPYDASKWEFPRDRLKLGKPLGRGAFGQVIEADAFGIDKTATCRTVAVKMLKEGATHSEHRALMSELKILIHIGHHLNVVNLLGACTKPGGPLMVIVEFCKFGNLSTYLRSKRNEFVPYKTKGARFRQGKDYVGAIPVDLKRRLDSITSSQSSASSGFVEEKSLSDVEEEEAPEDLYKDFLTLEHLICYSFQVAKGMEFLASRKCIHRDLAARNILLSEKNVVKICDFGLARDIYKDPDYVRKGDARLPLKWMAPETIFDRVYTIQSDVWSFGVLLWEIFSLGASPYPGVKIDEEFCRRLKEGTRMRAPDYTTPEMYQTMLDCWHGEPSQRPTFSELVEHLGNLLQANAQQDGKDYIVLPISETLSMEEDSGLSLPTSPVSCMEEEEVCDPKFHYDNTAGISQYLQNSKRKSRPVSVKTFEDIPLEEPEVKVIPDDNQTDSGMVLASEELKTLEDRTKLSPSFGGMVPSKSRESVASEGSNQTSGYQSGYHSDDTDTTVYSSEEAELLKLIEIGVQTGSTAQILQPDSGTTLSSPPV
The test is described as follows: Inhibition against VEGFR2 kinase (receptor tyrosine kinase activity, HTRF method). The format is biochemical. The conditions noted are these: His6-VEGFR2 cytoplasmic domain, biotin-poly(GT) substrate, ATP, 30° C. 10 minutes, read-out: IC50 (concentration required for 50% inhibition of VEGFR2 kinase activity). The text has this:
Measurement of Inhibition Against Receptor Tyrosine Kinase Activity
This assay is used to determine inhibition of a test substance on tyrosine kinase activity. DNA coding for the cytoplasmic domain of VEGFR2 is obtained by total cDNA synthesis (Edwards M, International Biotechnology Lab 5(3), 19–25, 1987) or by cloning. Expression in an appropriate expression system can produce a polypeptide with tyrosine kinase activity. […] For VEGFR2 (Genbank Accession No. L04947), the 1.7 kb DNA fragment described by Terman et al. (Oncogene, 6(9), 1677–1683, 1991), coding for the cytoplasmic domain, beginning with lysine 791 and including the termination codon, was isolated from a human placental cDNA library (purchased from Clontech Laboratories, Inc.) and cloned in a Baculovirus expression vector (pFastBacHis, purchased from GIBCO BRL) The recombinant construct was transfected into insect cells (Spondoptea frugiperda9 (Sf9)) to prepare a recombinant Baculovirus. (Instructions for preparation and use of recombinant Baculovirus maybe found in standard texts, such as “Bac-To-Bac Baculovirus Expression System” (GIBCO BRL).) The cytoplasmic fragment starting from lysine 398 (FGFR1, Genbank Accession No. X52833), the cytoplasmic fragment starting from lysine 558 (PDGFRβ, Genbank Accession No. M21616) or the cytoplasmic fragment starting from lysine 974 (HGFR, Genbank Accession No. J02958) may be cloned and expressed by the same method for use in assays for other tyrosine kinases. EGFR was purchased from Sigma Co. (Product No. E-2645).
For expression of the VEGFR2 tyrosine kinase, Sf9 cells were infected with the VEGFR2 recombinant virus and collected after 48 hours. The collected cells were rinsed with ice-cooled phosphate buffered saline (PBS) and then resuspended using 20 ml of ice-cooled Lysis Buffer (50 mM Tris-HCl (pH 8.5), 5 mM 2-mercaptoethanol, 100 mM KCl, 1 mM phenylmethylsulfonyl fluoride, 1% (v/v) NP-40) per 1.5×10^8 cells. The suspension was centrifuged at 12,000 rpm for 30 minutes at 4° C. and the supernatant was obtained.
The supernatant was added to a Ni—NTA agarose column (3 ml, purchased from Qiagen) equilibrated with Buffer A {20 mM Tris-HCl (pH 8.5), 5 mM 2-mercaptoethanol, 500 mM KCl, 20 mM imidazole, 10% (v/v) glycerol}. The column was washed with 30 ml of Buffer A, and then with 6 ml of Buffer B {20 mM Tris-HCl (pH 8.5), 5 mM 2-mercaptoethanol, 1M KCl, 10% (v/v) glycerol}, and finally with 6 ml of Buffer A. After washing, it was eluted with 6 ml of Buffer C {20 mM Tris-HCl (pH8.5), 5mM2-mercaptoethanol, 100 mMKCl, 100 mM imidazole, 10% (v/v) glycerol}. The eluate was placed on a dialysis membrane (purchased from Spectrum Laboratories) and dialyzed with a dialysis buffer {20 mM Tris-HCl (pH 7.5), 10% (v/v) glycerol, 1 mM dithiothreitol, 0.1 mM Na3VO4, 0.1 mM EGTA}. After dialysis, it was supplied for SDS-electrophoresis, and the recombinant protein (His6-VEGFR2, cytoplasmic domain of VEGFR2 fused with 6 histidine residues at the N-terminus) detected at a molecular weight of approximately 100 kDa with Coumassie Brilliant Blue staining was assayed using BSA (bovine serum albumin, purchased from Sigma Co.) as the standard substance, and stored at −80° C. until use. Using the same method for the cytoplasmic domains of FGFR1, PDGFRβ and HGFR yielded respective recombinant proteins fused with 6 histidine residues at the N-termini (His6-FGFR1, His6-PDGFRβ or His6-HGFR).
The tyrosine kinase reaction was conducted as follows. […]
(In general: In TR-FRET formats the signal depends on donor and acceptor labels being close together.)
Regarding `COc1ccc(NC(=O)Nc2ccc(Oc3ccnc4cc(OCCCc5ccncc5)c(C#N)cc34)cc2)cc1` [Example 1], the pIC50 is 7.29.

Regarding `COCCOc1cc2nccc(Oc3ccc(NC(=O)Nc4ccccc4)cc3)c2cc1C#N` [Example 65, N-(4-(6-cyano-7-(methoxyethoxy)-4-quinolyl)oxyphenyl)-N′-phenylurea], the pIC50 is 7.82. On the same count and under the same terms, as for `COCCOc1cc2nccc(Oc3ccc(NC(=O)NC4CC4)cc3)c2cc1C(N)=O` [Example 116, 4-(4-((Cyclopropylamino)carbonyl)aminophenoxy)-7-(2-methoxyethoxy)-6-quinolinecarboxamide], the figure is 8.38; as for `O=C(Nc1ccc(F)cc1)Nc1ccc(Oc2ccnc3[nH]c(=O)ccc23)cc1` [Example 183, N-(4-Fluorophenyl)-N′-{4-[(7-oxo-7,8-dihydro[1,8]naphthyridin-4-yl)oxy]phenyl}urea], 7.54. Take `CCOC(=O)/C=C/c1c(Oc2ccc(NC(=O)Nc3ccc(F)cc3)cc2)ccnc1NC(=O)C1CC1` [Example 184, Ethyl(E)-3-[2-[(cyclopropylcarbonyl)amino]-4-(4-{[(4-fluoroanilino)carbonyl]amino}phenoxy)-3-pyridyl]-2-propenoate]: the pIC50 was 7.23. The same measure, in the same setting: as for `O=C(CCCN1CCC(O)CC1)Nc1cc(Oc2ccc3c(ccn3C(=O)NC3CC3)c2)ccn1` [Example 187, N1-Cyclopropyl-5-[(2-{[4-(4-hydroxypiperidino)butanoyl]amino}-4-pyridyl)oxy]-1H-1-indolecarboxamide], the figure is 7.85. Still for that read-out and setting: the same measure for `O=C(Nc1ccc(Oc2ccnc(NC(=O)C3CC3)c2)cc1Cl)NC1CC1` [Example 208]: 8.04. Same read-out and setting: as for `COCCOc1cc2nccc(Sc3ccc(NC(=O)Nc4nccs4)s3)c2cc1C#N` [Example 252, 1-{5-[6-Cyano-7-(2-methoxyethoxy)-quinolin-4-ylsulfanyl]-thiophen-2-yl}-3-(thiazol-2-yl)urea], the figure is 7.51; as for `COCCOc1cc2nccc(Sc3ccc(NC(=O)Nc4ccc(C)cc4)s3)c2cc1C#N` [Example 259, 1-{5-[6-Cyano-7-(2-methoxyethoxy)quinolin-4-ylsulfanyl]thiophen-2-yl}-3-(para-tolyl)urea], 7.80. In the case of `COCCOc1cc2nccc(Sc3ccc(NC(=O)Nc4cccc(C#N)c4)s3)c2cc1C#N` [Example 260, 1-{5-[6-Cyano-7-(2-methoxyethoxy)quinolin-4-ylsulfanyl]-thiophen-2-yl}-3-(3-cyanophenyl)-urea], the pIC50 was 7.96. In the case of `COCCOc1cc2nccc(Oc3ccc(NC(=O)NC4CC4)c(Cl)c3)c2cc1C#N` [Example 262], the pIC50 was 8.02. The same measure, in the same setting: the same measure for `COc1cc2nccc(Oc3ccc(N(C)C(=O)NC4CC4)cc3)c2cc1C(N)=O` [Example 350, 4-(4-(Cyclopropylaminocarbonyl)-4-methylaminophenoxy)-7-methoxy-6-quinolinecarboxamide]: 7.37; for `COc1cc2nccc(Oc3ccc(NC(=O)NCCCSC)c(F)c3)c2cc1C(N)=O` [Example 353, 4-(3-Fluoro-4-((3-methylthiopropylamino)carbonyl)aminophenoxy)-7-methoxy-6-quinolinecarboxamide]: 8.66. As for `COCCOc1cc2nccc(Oc3ccc(NC(=O)NCCF)c(F)c3)c2cc1C(N)=O` [Example 364, 4-(4-(3-Fluoro(2-fluoroethylamino)carbonyl)aminophenoxy)-7-(2-methoxyethoxy)-6-quinolinecarboxamide], the pIC50 was 8.09. On the same count and under the same terms, the same measure for `COCCOc1cc2nccc(Oc3ccc(NC(=O)NCCCF)c(F)c3)c2cc1C(N)=O` [Example 365]: 8.27. Still for that read-out and setting: as for `NC(=O)c1cc2c(Oc3ccc(NC(=O)NC4CC4)c(F)c3)ccnc2cc1OCCN1CCOCC1` [Example 375, 4-(4-(Cyclopropylaminocarbonyl)amino-3-fluorophenoxy)-7-(2-(4-morpholino)ethoxy)-6-quinolinecarboxamide], the figure is 7.80; as for `NC(=O)c1cc2c(Oc3ccc(NC(=O)NC4CC4)c(Cl)c3)ccnc2cc1OCCCO` [Example 387, 4-(3-Chloro-4-(cyclopropylaminocarbonyl)aminophenoxy)-7-(3-hydroxypropoxy)-6-quinolinecarboxamide], 8.39.

For the compound `CN1CCC(COc2cc3nccc(Oc4ccc(NC(=O)NC5CC5)c(Cl)c4)c3cc2C(N)=O)CC1` [Example 394, 4-(3-Chloro-4-(cyclopropylaminocarbonyl)aminophenoxy)-7-((1-methyl-4-piperidyl)methoxy)-6-quinolinecarboxamide], the pIC50 is 7.82. As to `COCCNC(=O)c1cc2c(Oc3ccc(NC(=O)NC4CC4)c(Cl)c3)ccnc2cc1OC` [Example 398, N6-(2-Methoxyethyl)-4-(3-chloro-4-(((cyclopropylamino)carbonyl)amino)phenoxy)-7-methoxy-6-quinolinecarboxamide], the pIC50 was 8.46.

With `COc1cc2nccc(Oc3ccc(NC(=O)NC4CC4)c(Cl)c3)c2cc1C(=O)NCCO` [Example 410, N6-(2-Hydroxyethyl)-4-(3-chloro-4-(((cyclopropylamino)carbonyl)amino)phenoxy)-7-methoxy-6-quinolinecarboxamide], the pIC50 is 8.66. Same read-out and setting: the same measure for `COc1cc2nccc(Oc3ccc(NC(=O)NC4CC4)c(Cl)c3)c2cc1C(=O)NCC1OCCO1` [Example 413, N6-(1,3-Dioxolan-2-ylmethyl)-4-(3-chloro-4-(((cyclopropylamino)carbonyl)amino)phenoxy)-7-methoxy-6-quinolinecarboxamide]: 8.49; for `COc1cc2nccc(Oc3ccc(N(C)C(=O)Nc4ccc(F)cc4)cc3)c2cc1C(=O)NC1CC1` [Example 435]: 7.66. The same measure, in the same setting: as for `CONC(=O)c1cc2c(Oc3ccc(N(C)C(=O)Nc4ccc(F)cc4)cc3)ccnc2cc1OC` [Example 437, N6-Methoxy-4-(4-(((4-fluoroanilino)carbonyl)(methyl)amino)phenoxy)-7-methoxy-6-quinolinecarboxamide], the figure is 8.00.

For the compound `COc1cc2nccc(Oc3ccc(NC(=O)NC4CC4)c(Cl)c3)c2cc1C(=O)NCC(N)=O` [Example 449, N6-(2-Amino-2-oxoethyl)-4-(3-chloro-4-(((cyclopropylamino)carbonyl)amino)phenoxy)-7-methoxy-6-quinolinecarboxamide], the pIC50 is 8.66. The same measure, in the same setting: as for `O=C(Nc1ccc(F)cc1)Nc1ccc(Oc2ccnc(NC(=O)c3cccnc3)c2)cc1` [Example 465, N-[4-(2-Nicotinoylaminopyridin-4-yl)oxyphenyl]-N′-(4-fluorophenyl)urea], the figure is 7.89; as for `CC(=O)Nc1cc(Oc2ccc(NC(=O)Nc3cccc(S(C)(=O)=O)c3)cc2)ncn1` [Example 556, N-(6-(4-(3-(3-Methylsulfonylphenyl)ureido)phenoxy)pyrimidin-4-yl)acetamide], 7.85.

These data come from patent US7253286B2, “Nitrogen-containing aromatic derivatives” (Eisai Co., Ltd, priority 2000, dated 2007).
